pIC50: −log10 of the molar value. Calls of active or inactive are those of the source. No rule for the calls is given here.
Molecular target: glucose-6-phosphate dehydrogenase-6-phosphogluconolactonase (Plasmodium falciparum 3D7)
Assay: concentration-dependent PfGluPho enzyme inhibition – biochemical, fluorescence intensity, dose response (AID 504765)
Settings: Recombinant PfG6PD enzyme, fluorescence intensity (NADPH)

| Structure (SMILES) | pIC50 | IC50 |
| --- | --- | --- |
| CCOC(=O)Cc1csc(-n2sc3ccccc3c2=O)n1 | 5.55 |  |
| CN(C)c1ccc2nc3ccc(=O)cc-3sc2c1 | 4.88 |  |
| Cc1ccc(NS(=O)(=O)c2ccccc2Cl)c2c1CC(C)(C)O2 | 5.09 |  |
| NCCNc1ccc(C(=O)N2c3ccccc3Sc3ccccc32)cc1[N+](=O)[O-] | 4.88 |  |
| COC1=CC(=O)C=C(OC)C1(O)CC(C)=O | 5.23 |  |
| O=C(Nc1ccc(N2CCOCC2)c(Cl)c1)c1ccc(Cl)cc1 | 5.31 |  |
| O=c1c2cc(F)ccc2sn1-c1ccc(F)cc1 | 5.65 |  |
| Cc1ccc(S(=O)c2ccc([N+](=O)[O-])c3nonc23)cc1 (configuration not stated) | 5.09 |  |
| Cc1cccc(C(=O)Nc2nnc(S(=O)(=O)N3CCOCC3)s2)c1 | 5.13 |  |
| C=CCOc1c(Cl)cc(CNc2ccc(N(C)C)cc2)cc1OC | 5.01 |  |
| COc1cc(NCc2ccccc2)c2ncn(Cc3ccccc3)c2c1 |  | > 80 µM (inactive) |
| O=C(Sc1n[nH]c(=O)[nH]c1=O)c1ccccc1 | 5.48 |  |
| C[C@H](CO)N1C[C@H](C)[C@@H](CN(C)C(=O)Nc2ccc(C(F)(F)F)cc2)Oc2c(cccc2N(C)C)C1=O | 5.30 |  |
| CC(=O)Nc1ccc2c(c1)Cc1cc(N3C(=O)C=CC3=O)ccc1-2 | 4.71 |  |
| CCOC(=O)c1ccc(-n2c(N)c(C(=O)NCC3CCCO3)sc2=S)cc1 (configuration not stated) |  | inactive |
| CCOc1ccccc1NS(=O)(=O)c1c(C)noc1C | 5.00 |  |
| Cc1ccnc(-n2sc3ccccc3c2=O)n1 | 4.93 |  |
| CCc1cc(-c2n[nH]c(C)c2-c2ccccc2Cl)c(O)cc1OC | 5.12 |  |
| COC(=O)[C@H](C)NC(=O)c1cc2c(cn1)[nH]c1ccccc12 |  | inactive |
| O=C1C=C(NCCc2cc(Br)c(O)c(Br)c2)C(=O)c2ncccc21 | 5.87 |  |
| COc1ccc(N2CSC3=C(C#N)C(c4cc(OC)c(OC)cc4OC)CC(=O)N3C2)c(OC)c1 (configuration not stated) | 5.50 |  |

| Structure (SMILES) | pIC50 | IC50 |
| --- | --- | --- |
| COc1cccc(CNc2ccc3[nH]c(=O)[nH]c3c2)c1OCc1ccc(F)cc1 |  | inactive |
| O=C(NC1=CC(=O)c2ccccc2C1=O)c1ccccc1 | 5.60 |  |
| Cc1ccc(-n2c(N)c(C(=O)N3CCN(C)CC3)sc2=S)cc1 | 4.80 |  |
| c1cc(CNc2ccc3c(c2)OCO3)ccn1 |  | inactive |
| O=c1c2cc(F)ccc2sn1-c1ccccc1Cl | 5.37 |  |
| Oc1cc(-n2cccn2)c(O)cc1-n1cccn1 | 5.22 |  |
| Cn1c(=O)[nH]c(=O)c2c1nc([N+](=O)[O-])n2Cc1ccccc1 | 5.50 |  |
| O=C(Nc1ccccn1)c1sc2cc([N+](=O)[O-])ccc2c1Cl |  | inactive |
| O=C(CNC(=O)c1cccs1)OCC(=O)c1ccc([N+](=O)[O-])cc1 | 4.86 |  |
| Nc1ccc(S(=O)(=O)c2cc(O)c3ccccc3c2O)cc1 | 5.24 |  |
| C=CCN1CCc2cccc3c2[C@H]1Cc1ccc(O)c(O)c1-3 | 4.71 |  |
| C[C@H](NC(=O)c1cc2c(cn1)[nH]c1ccccc12)C(=O)O |  | inactive |
| CC(C)c1nnc(NC(=O)c2cccc(-n3cnnn3)c2)s1 | 5.26 |  |
| Cc1ccc(-c2nc(N)s[n+]2-c2ccccc2)cc1 | 5.04 |  |
| CCOc1ccc(Cl)cc1/C=N/NC(N)=O | 4.91 |  |
| CCC(c1ccc(O)c(O)c1)C(CC)c1ccc(O)c(O)c1 (configuration not stated) |  | inactive |
| CCSc1nc2cc(S(=O)(=O)N3CCOCC3)ccc2o1 |  | inactive |
| Cc1ccc(Nc2cc(C)c(O)c(C)c2)cc1 | 5.21 |  |
| CCN1/C(=C/C=C/C=C/C=C/c2sc3ccccc3[n+]2CC)Sc2ccccc21 | 5.12 |  |
| Cc1cc(O)c(C(C)C)cc1N=Cc1ccc([N+](=O)[O-])cc1 | 5.16 |  |
| CC1CN(c2ccccc2)NC1=O (configuration not stated) | 5.63 |  |

| Structure (SMILES) | pIC50 | IC50 |
| --- | --- | --- |
| CC1N(C)c2cccc3cccc(c23)N1C | 4.95 |  |
| OCCN1CCN(C(=S)c2ccc(-c3ccccc3)cc2)CC1 | 4.71 |  |
| COC(=O)CCC(=O)OC1(C)C(=O)C2=CN(c3ccc(OC)cc3)C(c3ccc(OC)cc3)=CC2=C(Br)C1=O (configuration not stated) | 5.51 |  |
| C=CCSc1nc2sc3c(c2c(=O)n1CC)CCc1ccccc1-3 |  | inactive |
| Cc1nnc(SCC(=O)c2cc(C)n(-c3ccc4c(c3)OCO4)c2C)s1 | 5.13 |  |
| COC(=O)c1cc2c(n1S(=O)(=O)c1ccc(C)cc1)C(=O)C(=O)c1[nH]cc(C(=O)OCc3ccccc3)c1-2 | 4.80 |  |
| [O-]/[N+](=C\c1ccncc1)c1ccccc1 | 5.02 |  |
| Nc1ccc2c3c(cccc13)-c1ccccc1-2 |  | inactive |
| Oc1cc(CNCc2ccccc2)c(O)cc1CNCc1ccccc1 | 5.47 |  |
| O=C1CCC[C@@H]2[C@@H](Cc3ccccc3)[C@H](N3CCN(c4ccccc4)CC3)C[C@@H]3CCN1[C@@H]32 | 5.03 |  |
| Oc1ccc(NCc2ccccc2OCc2ccccc2)cc1 |  | inactive |
| C=CCOc1c(Cl)cc(CNc2ccc3[nH]c(=O)[nH]c3c2)cc1OC | 5.10 |  |
| CN(C)c1ccc(C=c2c3ccccc3n3c2c2ccccc2[n+]3C)cc1 | 4.80 |  |
| CCN(CC)C(=O)c1c(C)[nH]c(=S)c(C#N)c1-c1ccco1 |  | inactive |
| [O-]/[N+](=C/c1cccnc1)c1ccc(Br)cc1 | 5.95 |  |
| Cc1cc(C)nc(/N=C(\N)Nc2ccccc2-c2ccccc2)n1 | 5.09 |  |
| CCN1CCCC1CNC(=O)c1ccc2c(c1)NC(=O)/C(=C\c1ccccc1F)S2 (configuration not stated) | 5.71 |  |
| O=C1C=CC(=O)N1CCNc1ncc(C(F)(F)F)cc1Cl | 4.70 |  |
| Cc1ccc(C(=O)Nc2nnc(S(=O)(=O)N3CCC(C)CC3)s2)cc1 |  | inactive |
| Cc1cc(C)c2c(=O)n(CC(=O)N3CCC(N4CCCCC4)CC3)sc2n1 | 5.41 |  |
